Data on seven compounds can be found in patent US12624044B2, “SMARCA degraders and uses thereof” (Kymera Therapeutics, Inc., priority 2019, dated 2026).

What all share (type): cell-based
One experiment addresses T1, SMARCA4 (Homo sapiens, UniProt P51532).
T1 construct: SMARCA2 and SMARCA4 protein degradation in MV4-11 cells; endogenous in cells; host or cells: MV4-11
As to the kind of experiment: SMARCA4 Western blot MV4-11 degradation. The conditions noted are these: 24 h; for DC50: MV4-11 cells, read-out: SMARCA4 WB MV411 degradation 24 h: Average external-Abs DC50; for Dmax: MV4-11, MV4-11 cells, read-out: SMARCA4 WB MV411 degradation 24 h: Average Dmax %. On the procedure: Cells were seeded into 6-well plates (MV4-11: 4×10^6 cells/well/1 ml) and 1 ml of 2× compound solution was added into the well to make the final concentration and the plates were mixed well and incubated for 24 hours (No cytotoxicity was observed). The cell were collected with media and spun at 3000 rpm for 5 minutes. The supernatant was aspirated and the well and the cells were washed with cold PBS once and combined for centrifugation again; the supernatant aspirated again. 200 ul pre-chilled RIPAlysis buffer (Boston BioProducts BP-115D) with protease/phosphatase inhibitor (Roche 05892791001/Roche 04906837001) was directly added into the tube to lyze the cells for 20 minutes on ice. The cell lysate were collected into EP tubes and spun at 13000 rpm for 20 minutes and 72 ul supernatant was transferred to a fresh EP tube containing 18 ul of 5× loading buffer (Beyotime Bio P0015) to make the loading samples. The samples were heated to 100° C. for 10 minutes and cooled to RT and microcentrifuged. 20 ul of samples were loaded onto SDS-PAGE gel (Novex, WG1402BOX) and the gel was run at 80 V for 20 minutes and 120 V for 1.5 hours. The samples were electrotransfer to a NC membrane using wet-transfer method with 250 mA for 2.5 hours. The membrane was blocked with LICOR blocking buffer (LI-COR, 927-50000) for 1 hour. The membrane was washed three times with TBST (CST #9997S), 5 minutes each. Incubation was performed with primary antibody prepared in blocking buffer with 0.1% Tween-20 (Solarbio, P8220) at 4° C. overnight (Anti-SMARCA2/BRM antibody (ab15597) 1:500; Anti-BRG1 antibody [EPR3912] (ab108318) 1:1000; Rabbit anti-Baf180 antibody [EPR15860] (Abcam, ab196022) 1:1000; mouse anti-beta-Actin (8H10D10) (CST #3700) 1:10000). The membrane was washed three times with TBST, 5 minutes each. Incubation with secondary antibody was performed for 1 hour at RT (anti-rabbit IgG (Licor, 926-32211) 1:5000; anti-mouse IgG (LI-COR, 926-68070) 1:5000). The membrane was washed three times with TBST, 5 minutes each and lastly the LiCOR was read.
The letter codes for the percentage of SMARCA degradation after 24 hours (Dmax %) include: A (>90% degradation), B (>70-90% degradation), C (50-70% degradation), and D (<50% degradation).
For orientation: Immunoblotting shows a protein as a band on a membrane.

Experiment [1] concerns the target T2, SMARCA2 (Homo sapiens, UniProt P51531). As to the kind of experiment: MSD SMARCA2 degradation in A549 cell line. Particulars: 24 h; for DC50: A549 cells, read-out: SMARCA2 MSD A549 degradation 24 h: Average external-Abs DC50; for Dmax: A549, A549 cells. The essentials: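 A549 cells treated 24 h with compound at final 0.152-1000 nM (3-fold series, DMSO control). Lysates analyzed by MSD immunoassay using anti-SMARCA2/BRM detection and SULFO-TAG secondary antibodies; maximal degradation (Dmax %) reported as letter bins.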

Experiment [2] addresses T2, SMARCA2. The experiment is described as follows: MSD SMARCA2 degradation in NCI-H1299 cell line (24 h). The arrangement: HC: NCI-H1299 cells treated with DMSO; host or cells: NCI-H1299. Put shortly: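 NCI-H1299 cells treated 24 h with a 3-fold, 9-point compound dilution series, then lysed in RIPA with protease inhibitor. SMARCA2 in lysate-coated MSD plates detected with rabbit anti-SMARCA2 (0.3 ug/ml) and SULFO-TAG secondary. Relative SMARCA2 level normalized between DMSO-treated H1299 cells and SMARCA2-negative A2780 cells; Dmax % binned A–D.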

T2 sequence (P51531 whole entry): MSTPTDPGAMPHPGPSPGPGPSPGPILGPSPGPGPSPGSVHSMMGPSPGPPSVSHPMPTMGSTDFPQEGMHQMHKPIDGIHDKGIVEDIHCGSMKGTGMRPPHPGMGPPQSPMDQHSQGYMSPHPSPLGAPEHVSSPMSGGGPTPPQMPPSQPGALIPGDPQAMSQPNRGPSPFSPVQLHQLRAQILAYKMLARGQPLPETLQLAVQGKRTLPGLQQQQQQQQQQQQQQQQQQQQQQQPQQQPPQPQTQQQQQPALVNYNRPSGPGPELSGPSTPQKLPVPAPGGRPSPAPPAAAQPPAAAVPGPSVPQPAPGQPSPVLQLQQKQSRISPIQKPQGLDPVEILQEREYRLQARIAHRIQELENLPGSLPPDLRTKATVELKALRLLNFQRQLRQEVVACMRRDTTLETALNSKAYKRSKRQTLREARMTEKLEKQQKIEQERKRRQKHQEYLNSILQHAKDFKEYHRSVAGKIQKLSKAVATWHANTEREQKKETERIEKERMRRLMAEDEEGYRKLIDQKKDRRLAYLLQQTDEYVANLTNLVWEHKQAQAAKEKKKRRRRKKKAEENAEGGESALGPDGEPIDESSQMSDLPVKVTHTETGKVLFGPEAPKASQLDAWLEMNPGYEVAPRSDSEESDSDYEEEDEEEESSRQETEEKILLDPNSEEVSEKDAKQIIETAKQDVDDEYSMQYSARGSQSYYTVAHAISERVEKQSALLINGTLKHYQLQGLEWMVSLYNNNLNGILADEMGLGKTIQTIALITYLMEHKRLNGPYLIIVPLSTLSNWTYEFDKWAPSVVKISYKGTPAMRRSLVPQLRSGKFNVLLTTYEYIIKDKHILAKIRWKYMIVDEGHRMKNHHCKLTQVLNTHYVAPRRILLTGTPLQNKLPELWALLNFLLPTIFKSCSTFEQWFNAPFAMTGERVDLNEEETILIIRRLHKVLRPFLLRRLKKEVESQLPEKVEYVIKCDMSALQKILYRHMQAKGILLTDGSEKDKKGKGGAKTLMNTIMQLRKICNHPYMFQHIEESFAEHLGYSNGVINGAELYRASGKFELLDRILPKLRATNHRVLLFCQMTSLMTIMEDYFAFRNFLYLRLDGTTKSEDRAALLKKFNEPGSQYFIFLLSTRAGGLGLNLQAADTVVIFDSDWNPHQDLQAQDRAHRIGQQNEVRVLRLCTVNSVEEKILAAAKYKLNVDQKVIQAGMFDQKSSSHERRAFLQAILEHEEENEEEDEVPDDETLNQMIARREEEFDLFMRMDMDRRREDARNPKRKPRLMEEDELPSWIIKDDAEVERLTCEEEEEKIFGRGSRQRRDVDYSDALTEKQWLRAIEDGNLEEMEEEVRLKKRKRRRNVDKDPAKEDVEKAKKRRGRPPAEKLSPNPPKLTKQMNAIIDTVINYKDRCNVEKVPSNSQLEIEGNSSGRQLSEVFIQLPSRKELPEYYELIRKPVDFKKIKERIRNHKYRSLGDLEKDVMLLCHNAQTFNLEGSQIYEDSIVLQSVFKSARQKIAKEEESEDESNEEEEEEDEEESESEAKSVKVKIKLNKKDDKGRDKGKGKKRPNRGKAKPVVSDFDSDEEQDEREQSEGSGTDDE
T1 sequence (P51532 whole entry): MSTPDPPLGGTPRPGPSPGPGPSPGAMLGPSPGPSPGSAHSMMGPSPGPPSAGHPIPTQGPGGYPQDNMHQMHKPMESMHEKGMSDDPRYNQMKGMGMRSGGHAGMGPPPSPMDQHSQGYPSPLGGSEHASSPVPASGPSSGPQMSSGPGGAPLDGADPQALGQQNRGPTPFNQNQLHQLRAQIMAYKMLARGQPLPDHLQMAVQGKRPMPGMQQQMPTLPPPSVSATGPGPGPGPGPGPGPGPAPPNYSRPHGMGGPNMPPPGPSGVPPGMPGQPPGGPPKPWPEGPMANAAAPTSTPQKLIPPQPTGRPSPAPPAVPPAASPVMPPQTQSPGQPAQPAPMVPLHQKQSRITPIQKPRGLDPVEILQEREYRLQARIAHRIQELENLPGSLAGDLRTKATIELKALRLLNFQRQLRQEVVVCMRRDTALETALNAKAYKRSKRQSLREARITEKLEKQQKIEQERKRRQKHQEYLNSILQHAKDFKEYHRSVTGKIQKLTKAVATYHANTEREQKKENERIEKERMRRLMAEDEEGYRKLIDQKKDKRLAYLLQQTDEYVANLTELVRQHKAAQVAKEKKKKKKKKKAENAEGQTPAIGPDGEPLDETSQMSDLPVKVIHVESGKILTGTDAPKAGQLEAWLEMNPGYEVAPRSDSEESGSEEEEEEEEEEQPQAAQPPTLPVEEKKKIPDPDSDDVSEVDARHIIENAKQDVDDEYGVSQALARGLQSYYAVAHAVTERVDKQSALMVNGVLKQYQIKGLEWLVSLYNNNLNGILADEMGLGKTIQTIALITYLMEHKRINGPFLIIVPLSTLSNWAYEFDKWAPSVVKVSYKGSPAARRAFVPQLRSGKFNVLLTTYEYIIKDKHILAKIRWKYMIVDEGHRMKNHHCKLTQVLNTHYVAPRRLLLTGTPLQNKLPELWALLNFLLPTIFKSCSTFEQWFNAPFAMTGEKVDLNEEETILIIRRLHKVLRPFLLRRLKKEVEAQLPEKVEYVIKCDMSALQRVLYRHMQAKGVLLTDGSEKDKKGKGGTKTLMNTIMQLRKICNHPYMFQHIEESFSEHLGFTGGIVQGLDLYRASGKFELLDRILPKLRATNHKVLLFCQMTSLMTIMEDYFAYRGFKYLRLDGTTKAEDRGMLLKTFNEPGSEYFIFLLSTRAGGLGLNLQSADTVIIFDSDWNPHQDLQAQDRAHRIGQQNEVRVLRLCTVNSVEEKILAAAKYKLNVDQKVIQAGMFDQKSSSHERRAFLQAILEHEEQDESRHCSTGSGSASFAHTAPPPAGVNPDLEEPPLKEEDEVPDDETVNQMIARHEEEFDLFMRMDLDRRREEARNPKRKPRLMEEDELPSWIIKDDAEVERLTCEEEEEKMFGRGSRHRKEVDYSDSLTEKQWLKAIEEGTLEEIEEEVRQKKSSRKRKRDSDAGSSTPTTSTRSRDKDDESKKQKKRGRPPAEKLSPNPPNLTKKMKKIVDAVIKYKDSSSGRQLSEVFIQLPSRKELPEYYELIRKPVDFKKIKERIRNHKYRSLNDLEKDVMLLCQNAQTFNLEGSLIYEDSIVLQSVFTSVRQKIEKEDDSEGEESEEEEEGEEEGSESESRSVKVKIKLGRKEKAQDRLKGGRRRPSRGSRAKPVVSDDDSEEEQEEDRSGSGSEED

In the case of `Cn1c(=O)n(C2CCC(=O)NC2=O)c2ccc(C3CC4(C3)CC(N3CCC(c5cnc(N6C7CCC6CN(c6cc(-c8ccccc8O)nnc6N)C7)nc5)CC3)C4)cc21` (single isomer, unassigned) [I-536 (P2), 3-(5-(6-(4-(2-(3-(3-amino-6-(2-hydroxyphenyl)pyridazin-4-yl)-3,8-diazabicyclo[3.2.1]octan-8-yl)pyrimidin-5-yl)piperidin-1-yl)spiro[3.3]heptan-2-yl)-3-methyl-2-oxo-2,3-dihydro-1H-benzo[d]imidazol-1-yl)piperidine-2,6-dione], the DC50 at SMARCA4 and on SMARCA2 [1] was less than 100 nM throughout.
Take `Cn1c(=O)n(C2CCC(=O)NC2=O)c2ccc(C3CC4(C3)CC(N3CCC(c5cnc(N6C7CCC6CN(c6cc(-c8ccccc8O)nnc6N)C7)nc5)CC3)C4)cc21` (single isomer, unassigned) [I-536 (P3), 3-(5-(6-(4-(2-(3-(3-amino-6-(2-hydroxyphenyl)pyridazin-4-yl)-3,8-diazabicyclo[3.2.1]octan-8-yl)pyrimidin-5-yl)piperidin-1-yl)spiro[3.3]heptan-2-yl)-3-methyl-2-oxo-2,3-dihydro-1H-benzo[d]imidazol-1-yl)piperidine-2,6-dione]: the DC50 at SMARCA4 and on SMARCA2 [1] was less than 100 nM in each case.
As for `Cn1c(=O)n(C2CCC(=O)NC2=O)c2ccc(CCCN3CCC(c4nccc(N5C6CCC5CN(c5cc(-c7ccccc7O)nnc5N)C6)n4)CC3)cc21` (stereo not drawn) [I-278], at SMARCA4, the greatest degradation seen (Dmax) is more than 90% and the DC50 was less than 100 nM. On SMARCA2 [1], the Dmax was more than 90% and the DC50 was less than 100 nM.
Consider `Cn1c(=O)n(C2CCC(=O)NC2=O)c2ccc([C@H]3CC[C@@H](N4CCC(c5nccc(N6C7CCC6CN(c6cc(-c8ccccc8O)nnc6N)C7)n5)CC4)CC3)cc21` (stereo partly drawn) [I-279, 3-(5-((1s,4s)-4-(4-(4-(3-(3-amino-6-(2-hydroxyphenyl)pyridazin-4-yl)-3,8-diazabicyclo[3.2.1]octan-8-yl)pyrimidin-2-yl)piperidin-1-yl)cyclohexyl)-3-methyl-2-oxo-2,3-dihydro-1H-benzo[d]imidazol-1-yl)piperidine-2,6-dion], for which, on SMARCA4, the Dmax was more than 90% and the DC50 is less than 100 nM. Moreover, on SMARCA2 [1], the Dmax was more than 90% and the DC50 is less than 100 nM.
For `Cn1c(=O)n(C2CCC(=O)NC2=O)c2ccc([C@H]3CC[C@H](N4CCC(c5nccc(N6C7CCC6CN(c6cc(-c8ccccc8O)nnc6N)C7)n5)CC4)CC3)cc21` (stereo partly drawn) [I-280, 3-(5-((1r,4r)-4-(4-(4-(3-(3-amino-6-(2-hydroxyphenyl)pyridazin-4-yl)-3,8-diazabicyclo[3.2.1]octan-8-yl)pyrimidin-2-yl)piperidin-1-yl)cyclohexyl)-3-methyl-2-oxo-2,3-dihydro-1H-benzo[d]imidazol-1-yl)piperidine-2,6-dione], on SMARCA4, the Dmax was more than 90% and the DC50 is less than 100 nM. For the same compound, at SMARCA2 [1], the Dmax was more than 90% and the DC50 was less than 100 nM.
Turning to `Nc1nnc(-c2ccccc2O)cc1-c1cnn(C2CCN([C@H]3CC[C@@H](CNc4ccc5c(c4)C(=O)N(C4CCC(=O)NC4=O)C5=O)CC3)CC2)c1` (stereo partly drawn) [I-281, 5-((((1s,4s)-4-(4-(4-(3-amino-6-(2-hydroxyphenyl)pyridazin-4-yl)-1H-pyrazol-1-yl)piperidin-1-yl)cyclohexyl)methyl)amino)-2-(2,6-dioxopiperidin-3-yl)isoindoline-1,3-dione], on SMARCA4, the Dmax was more than 90% and the DC50 is less than 100 nM. For the same compound, on SMARCA2 [1], the greatest degradation seen (Dmax) is more than 90% and the DC50 is less than 100 nM.
As for `NCC#Cc1cnc(N2C3CCC2CN(c2cc(-c4ccccc4O)nnc2N)C3)nc1` [I-535, 2-[6-amino-5-[8-[5-(3-aminoprop-1-ynyl)pyrimidin-2-yl]-3,8-diazabicyclo[3.2.1]octan-3-yl]pyridazin-3-yl]phenol], the Dmax on SMARCA4 was less than 50%; at SMARCA2 [2] (NCI-H1299, NCI-H1299 cells), less than 50%. Besides, the DC50 at SMARCA4 is less than 100 nM; at SMARCA2 [2] (NCI-H1299 cells, read-out: SMARCA2 MSD H1299 degradation 24 h: External Abs-DC50), more than 1000 nM.

A word on the DC50: it is the concentration giving 50% degradation. As a reminder, the Dmax is the largest share of the target that was removed.
